This is an account of results in EP2963029A1, “Cyclic derivatives of epoxyisoprostanoids as therapeutic agents” (ETH Zurich, priority 2014, dated 2016).

Like-named read-outs stand apart in the source and are kept apart here.

For one assay, the system named is naïve CD4 T cells. Kind of assay: Co-culture of compound-pretreated splenic dendritic cells with naive CD4 T cells; Th1/Th2 polarization by intracellular FACS staining. The format is cell-based, C57BL/6 mice.
The test system of the next assay is Nrf2 target genes. Kind of assay: qPCR expression of Nrf2 target genes in pretreated, R837-stimulated bone marrow-derived dendritic cells. The class given is cell-based, mouse. An excerpt:
(§1) • Figure 1: Treatment with cyclo-EC (9) licenses dendritic cells to polarize niave CD4 T cells towards the Th2 subset. Naïve transgenic splenic CD4 T cells were co-cultured together with splenic dendritic cells that had been pre-treated either with cyclo-EC (9) (cEC) or the respective solvent control. CD4 T cells were then stimulated with the cognate antigen for 4 days. […] Shown is the percentage of IL-4 producing Th2 and IFNγ producing Th1 cells after treatment with cEC or solvent DMSO. Differences between cEC and DMSO treatments are significant as indicated by (*) using unpaired, two-tailed t tests. […] Wild type bone marrow-derived dendritic cells were pretreated with cyclo-EC (9) (cEC) or solvent control for 75 minutes before stimulation with the TLR7 (toll-like receptor 7) ligand R837 (Syed, T. A., Exp.Opin.Pharmacother. 2001, 2, 877) for an additional 3 h. Cells were then lysed, mRNA was purified, reverse transcribed and expression of Nrf2 ([…]) target genes as well as the indicated chemokine genes was determined by qPCR. Expression levels were normalized to G6PDH (glucose 6-phosphate dehydrogenase) expression. […] Cytokines in the supernatant were quantified with ELISA. • Figure 4. […] Cytokines in the supernatant were quantified with ELISA. • Figure 5. […]

Assay [1] concerns IL-6. Kind of assay: IL-6 secretion by bone marrow-derived dendritic cells stimulated with TLR7 agonist R837 (ELISA). As to conditions: BMDCs treated 60 minutes, then R837 for 18 h (Figures 3-5). The format is cell-based, mouse.
Description: as §1, with “qPCR.” for “qPCR. Expression levels were normalized to G6PDH (glucose 6-phosphate dehydrogenase) expression.”
(§2) Bone marrow cells from tibia and femur were isolated ex vivo and differentiated in vitro into bone marrow derived dendritic cells (BMDC) by cultivation in the presence of 2 ng/ml carrier free recombinant mouse GM-CSF (BioLegend, 576308) in RPMI 1640 medium (GE Healthcare, E15-039) supplemented with L-glutamine (Lonza-Cambrex BioWhittaker, BE17-605E), HEPES Buffer (Lonza-Cambrex BioWhittaker, BE17-737E), peniciline/ streptomycine (Gibco Life Technologies 15140-122) and fetal bovine serum (Gibco Life Sciences 10270-106). […] Cells were then harvested, counted and seeded into 96-well flat bottom plates at 10^5 cells/well. […] Cytokine concentrations in supernatant were quantified by sandwich ELISA using the following antibody pairs: IL-6 (504502 and 504602) from BioLegend and IL-12 (14-7125-85 and 13-7123-85) from eBioscience. […] Optical density was measured using a Spectra MAX 190 device by Bucher biotec. […]

In assay [2] the test system is IL-12. Nature of the assay: IL-12 secretion by bone marrow-derived dendritic cells stimulated with TLR7 agonist R837 (ELISA). The class given is cell-based, mouse. As to conditions: BMDCs treated 60 minutes, then R837 for 18 h (Figures 3-5).
Description: as §1, with “qPCR.” for “qPCR. Expression levels were normalized to G6PDH (glucose 6-phosphate dehydrogenase) expression.”
as §2

Assay [3] concerns Pro-inflammatory chemokine genes: CCL1, 2, 3 and 4. Kind of assay: qPCR expression of pro-inflammatory chemokine genes in pretreated, R837-stimulated bone marrow-derived dendritic cells. The format is cell-based, mouse. As to conditions: pretreated 75 minutes, then R837 for 3 h; normalized to G6PDH (Figure 2).
Description: as §1

In assay [4] the test system is IL-12. As to conditions: bone-marrow derived dendritic cells, Egger et al., Angew. Chem. Int. Ed. 2013, cited from earlier work.
Assay [5] deals with IL-6. As to conditions: bone-marrow derived dendritic cells, Egger et al., Angew. Chem. Int. Ed. 2013, cited from earlier work.

For `CCCCC/C=C\C[C@H]1C=CC(=O)/C1=C/[C@@H](O)[C@@H]1CCCC(=O)O1` [cyclo-EC (9), (S)-6-((R,E)-1-Hydroxy-2-((S)-2-((Z)-oct-2-en-1-yl)-5-oxocyclopent-3-en-1-liydene)-ethyl)tetrahydro-2H-pyran-2-one], the “percentage of IFNγ producing Th1 cells” value in the assay with naïve CD4 T cells (dendritic cells treated with 500nM for 60 minutes, co-culture 4 days with 10 nM gp61, vs solvent DMSO, p = 0.0161 (Figure 1)) is given as “interferes with high dose antigen induced polarization towards the Th1 subset”. Moreover, the “percentage of IL-4 producing Th2 cells” value in the assay with naïve CD4 T cells (dendritic cells treated with 500nM for 60 minutes, co-culture 4 days with 10 nM gp61, vs solvent DMSO, p = 0.039 (Figure 1)) is “licenses the dendritic cells to promote polarization of the Th2 subset”. Moreover, in the assay on Nrf2 target genes (pretreated 75 minutes, then R837 for 3 h, normalized to G6PDH (Figure 2)), the “expression of Nrf2 target genes (HO-1, NQO1)” value is on record as “induces expression of Nrf2 target genes”. Further, the “inhibition of IL-6 secretion” value with IL-6 [1] was “most potent inhibitor of IL-6 and IL-12 secretion”; in the assay with IL-6 [1] (listed as cEC), “attenuates secretion of pro-inflammatory cytokines at lower concentrations than EC”. For the same molecule, the “inhibition of IL-12 secretion” value was “most potent inhibitor of IL-6 and IL-12 secretion” with IL-12 [2]; “attenuates secretion of pro-inflammatory cytokines at lower concentrations than EC” with IL-12 [2] (listed as cEC). In addition, the “pro-inflammatory chemokine expression (CCL1, 2, 3 and 4)” value in assay [3] is on record as “inhibits pro-inflammatory chemokine expression”.

As for `CCCCC/C=C\C[C@H]1C=CC(=O)/C1=C/[C@H]1O[C@@H]1CCCC(=O)O` [EC (8), 4-((2R,3R)-3-((E)-((S)-2-((Z)-Oct-2-en-1-yl)-5-oxocyclopent-3-en-1-ylidene)-methyl)oxiran-2-yl)butanoic acid], in the assay with naïve CD4 T cells (earlier experiments, splenic dendritic cells), the “polarization of naïve CD4 T cells towards the Th2 subset” value was “able to license splenic dendritic cells to polarize naïve CD4 T cells towards the Th2 subset”. The results for the “secretion of pro-inflammatory cytokine IL-12” value in the assay with IL-12 [4] and with IL-12 [4] (listed as 8) were “more potent than EI (19)” and “reduced secretion”, respectively. Moreover, the “expression of downstream targets of Nrf2” value in the assay with Nrf2 target genes (earlier experiments, quantitative PCR) was “able to drive expression of downstream targets of Nrf2”. Further, the “inhibition of IL-6 secretion” value with IL-6 [1] is “potent inhibitor of toll-like receptor 7 (TLR) mediated secretion of pro-inflammatory cytokines”. Also, the “inhibition of IL-12 secretion” value in the assay on IL-12 [2] was “potent inhibitor of toll-like receptor 7 (TLR) mediated secretion of pro-inflammatory cytokines”. The “secretion of pro-inflammatory cytokine IL-6” value in the assay with IL-6 [5] is “more potent than EI (19)”; with IL-6 [5] (listed as 8), “reduced secretion”.

For the molecule `CCCCC/C=C\C[C@@H]1/C(=C\[C@H]2O[C@@H]2CCCC(=O)O)C(=O)C[C@H]1O` [EI (19), 5,6-epoxyisoprostane E2], the “secretion of pro-inflammatory cytokine IL-12” value with IL-12 [4] was “reduced secretion”. Besides, the “secretion of pro-inflammatory cytokine IL-6” value in the assay on IL-6 [5] is “reduced secretion”.
